Where “and” joins values, the source holds several entries; their conditions need not be identical. Identical values can stand only once. Toxic doses and inconclusive results are not listed.
System: L1210 leukemia ip in BDF1 mice, survival T/C
Test: NCI In Vivo Anticancer Drug Screen. Data for tumor model L1210 Leukemia (intraperitoneal) in B6D2F1 (BDF1) mice
Conditions: endpoint: mean survival time, higher = longer survival
Procedure, shortened: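 Ratio derived from survival: compound-dosed mice over vehicle-dosed mice, all bearing a transplantable tumor.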

[1] = dose: 50.0 mg/kg/injection, schedule: Q01DX009 (ip), vehicle: Klucel (hydroxypropylcellulose) (HPC)
[2] = dose: 100.0 mg/kg/injection, schedule: Q01DX009 (ip), vehicle: Klucel (hydroxypropylcellulose) (HPC)
[3] = dose: 12.5 mg/kg/injection, schedule: Q04DX003 (ip), vehicle: saline
[4] = dose: 50.0 mg/kg/injection, schedule: Q04DX003 (ip), vehicle: saline
[5] = dose: 100.0 mg/kg/injection, schedule: Q01DX001 (ip), vehicle: saline
[6] = dose: 100.0 mg/kg/injection, schedule: Q04DX003 (ip), vehicle: Klucel (hydroxypropylcellulose) (HPC)
[7] = dose: 200.0 mg/kg/injection, schedule: Q04DX003 (ip), vehicle: Klucel (hydroxypropylcellulose) (HPC)
[8] = dose: 200.0 mg/kg/injection, schedule: Q01DX009 (ip), vehicle: Klucel (hydroxypropylcellulose) (HPC)
[9] = dose: 400.0 mg/kg/injection, schedule: Q01DX009 (ip), vehicle: Klucel (hydroxypropylcellulose) (HPC)
[10] = dose: 400.0 mg/kg/injection, schedule: Q04DX003 (ip), vehicle: Klucel (hydroxypropylcellulose) (HPC)
[11] = dose: 100.0 mg/kg/injection, schedule: Q04DX003 (ip), vehicle: saline with Tween-80
[12] = dose: 200.0 mg/kg/injection, schedule: Q04DX003 (ip), vehicle: saline with Tween-80
[13] = dose: 400.0 mg/kg/injection, schedule: Q04DX003 (ip), vehicle: saline with Tween-80
[14] = dose: 100.0 mg/kg/injection, schedule: Q01DX001 (ip), vehicle: carboxymethylcellulose (CMC)
[15] = dose: 200.0 mg/kg/injection, schedule: Q01DX001 (ip), vehicle: saline
[16] = dose: 400.0 mg/kg/injection, schedule: Q01DX001 (ip), vehicle: saline

`Nc1nc(N)c(CCCCc2ccccc2)c(N)n1` was tested, and the T/C [1] was 87 % of control, the T/C (dose: 50.0 mg/kg/injection, schedule: Q01DX Z (ip), vehicle: carboxymethylcellulose (CMC)) was 95 % of control and the T/C [2] was 95 % of control.
In the case of `CC(=O)OCC1OC(OC(C)=O)C(NC(=O)NCCCl)C(OC(C)=O)C1OC(C)=O` (stereo unspecified), the T/C (dose: 100.0 mg/kg/injection, schedule: Q01DX001 (ip), vehicle: other) was 97 % of control, the T/C (dose: 200.0 mg/kg/injection, schedule: Q01DX001 (ip), vehicle: other) was 101 % of control and the T/C (dose: 400.0 mg/kg/injection, schedule: Q01DX001 (ip), vehicle: other) was 97 % of control.
`CC1CN1CCCNC(=O)C(=O)NCCCN1CC1C` (stereo unspecified) was tested, and the T/C [3] was 110 % of control and the T/C [4] was 168 % of control.
`CN(C)CCCCCCN(C)C` (tested in a mixture with another compound) was tested, and the T/C (dose: 9.38 mg/kg/injection, schedule: Q01DX001 (ip), vehicle: saline) was 102 % of control, the T/C (dose: 18.75 mg/kg/injection, schedule: Q01DX001 (ip), vehicle: saline) was 95 % of control and the T/C (dose: 37.5 mg/kg/injection, schedule: Q01DX001 (ip), vehicle: saline) was 93 % of control.
With `COc1cccc2c1[nH]c1cc3ccncc3cc12` the T/C (dose: 25.0 mg/kg/injection, schedule: Q01DX001 (ip), vehicle: saline) was 107 % of control, the T/C (dose: 50.0 mg/kg/injection, schedule: Q01DX001 (ip), vehicle: saline) was 112 % of control and the T/C [5] was 98 % of control and 102 % of control. For the same compound, the T/C [6] was 95 % of control and the T/C [7] was 95 % of control.
`Cc1ccc(NC(=S)N(C)C)cc1Cl` was tested, and the T/C [2] was 97 % of control, the T/C [6] was 104 % of control and the T/C [8] was 101 % of control. For the same compound, the T/C [7] was 97 % of control, the T/C [9] was 100 % of control and the T/C [10] was 104 % of control.
In the case of `CCOC(=O)CC/C(=C/c1cccc2ccccc12)[N+](=O)[O-]`, the T/C [11] was 105 % of control and the T/C [12] was 94 % of control.
`O=C1Cc2c(Cl)cccc2C(=S)N1` was tested, and the T/C (dose: 100.0 mg/kg/injection, schedule: Q01DX009 (ip), vehicle: saline sonified) was 95 % of control, the T/C [11] was 95 % of control and the T/C (dose: 200.0 mg/kg/injection, schedule: Q01DX009 (ip), vehicle: saline sonified) was 91 % of control. The T/C [12] was 93 % of control, the T/C (dose: 400.0 mg/kg/injection, schedule: Q01DX009 (ip), vehicle: saline sonified) was 98 % of control and the T/C [13] was 92 % of control.
For `Nc1ncnc2cc(O)[nH]c12`, the T/C (dose: 50.0 mg/kg/injection, schedule: Q01DX001 (ip), vehicle: carboxymethylcellulose (CMC)) was 107 % of control and the T/C [14] was 104 % of control.
With `O=C(O)c1cc(C(=O)O)c(C(=O)O)cc1C(=O)O` (tested in a mixture with another compound) the T/C (dose: 5.0 mg/kg/injection, schedule: Q01DX001 (ip), vehicle: saline) was 107 % of control, the T/C (dose: 10.0 mg/kg/injection, schedule: Q01DX001 (ip), vehicle: saline) was 103 % of control and the T/C (dose: 20.0 mg/kg/injection, schedule: Q01DX001 (ip), vehicle: saline) was 98 % of control. For the same compound, the T/C (dose: 40.0 mg/kg/injection, schedule: Q01DX001 (ip), vehicle: saline) was 104 % of control, the T/C (dose: 80.0 mg/kg/injection, schedule: Q01DX001 (ip), vehicle: saline) was 96 % of control and the T/C [5] was 98 % of control.
With `COc1ccc(C(=C(CC(=O)O)C(=O)OC(C)(C)C)c2ccc(OC)c(OC)c2)cc1OC` the T/C [14] was 96 % of control, the T/C (dose: 100.0 mg/kg/injection, schedule: Q01DX009 (ip), vehicle: carboxymethylcellulose (CMC)) was 91 % of control and the T/C (dose: 200.0 mg/kg/injection, schedule: Q01DX001 (ip), vehicle: carboxymethylcellulose (CMC)) was 97 % of control. For the same compound, the T/C (dose: 200.0 mg/kg/injection, schedule: Q01DX009 (ip), vehicle: carboxymethylcellulose (CMC)) was 95 % of control, the T/C (dose: 400.0 mg/kg/injection, schedule: Q01DX001 (ip), vehicle: carboxymethylcellulose (CMC)) was 94 % of control and the T/C (dose: 400.0 mg/kg/injection, schedule: Q01DX009 (ip), vehicle: carboxymethylcellulose (CMC)) was 91 % of control. The T/C (dose: 600.0 mg/kg/injection, schedule: Q01DX009 (ip), vehicle: carboxymethylcellulose (CMC)) was 91 % of control.
For `CCC/C=C(\C)CCCCCCCCC` (tested in a mixture with another compound), the T/C [11] was 98 % of control, the T/C [12] was 101 % of control and the T/C [13] was 106 % of control.
`O=[N+]([O-])c1ccc(Cl)cc1/C=N/N1CCN(/N=C/c2cc(Cl)ccc2[N+](=O)[O-])CC1` was tested, and the T/C [5] was 93 % of control, the T/C [15] was 93 % of control and the T/C [16] was 93 % of control.
`C[n+]1cc2ccccc2c2ccccc21` was tested, and the T/C (dose: 6.25 mg/kg/injection, schedule: Q01DX009 (ip), vehicle: water) was 104 % of control, the T/C (dose: 12.5 mg/kg/injection, schedule: Q01DX009 (ip), vehicle: saline) was 92 % of control and the T/C (dose: 12.5 mg/kg/injection, schedule: Q01DX009 (ip), vehicle: water) was 120 % of control. The T/C [3] was 101 % of control, the T/C (dose: 12.5 mg/kg/injection, schedule: Q04DX003 (ip), vehicle: water) was 98 % of control and the T/C (dose: 25.0 mg/kg/injection, schedule: Q01DX009 (ip), vehicle: saline) was 112 % of control. For the same compound, the T/C (dose: 25.0 mg/kg/injection, schedule: Q01DX009 (ip), vehicle: water) was 115 % of control, the T/C (dose: 25.0 mg/kg/injection, schedule: Q04DX003 (ip), vehicle: saline) was 107 % of control and the T/C (dose: 25.0 mg/kg/injection, schedule: Q04DX003 (ip), vehicle: water) was 107 % of control. For the same compound, the T/C (dose: 50.0 mg/kg/injection, schedule: Q01DX009 (ip), vehicle: saline) was 95 % of control, the T/C (dose: 50.0 mg/kg/injection, schedule: Q01DX009 (ip), vehicle: water) was 93 % of control and the T/C [4] was 107 % of control.
With `O=C(COC(=O)c1ccccc1C(=O)c1ccccc1O)c1ccc(-c2ccccc2)cc1` the T/C [15] was 91 % of control and the T/C [16] was 91 % of control.
For `N#Cc1cccnc1Cl`, the T/C (dose: 100.0 mg/kg/injection, schedule: Q01DX001 (ip), vehicle: Klucel (hydroxypropylcellulose) (HPC)) was 100 % of control, the T/C [6] was 96 % of control and the T/C (dose: 200.0 mg/kg/injection, schedule: Q01DX001 (ip), vehicle: Klucel (hydroxypropylcellulose) (HPC)) was 94 % of control. For the same compound, the T/C [7] was 87 % of control, the T/C (dose: 400.0 mg/kg/injection, schedule: Q01DX001 (ip), vehicle: Klucel (hydroxypropylcellulose) (HPC)) was 100 % of control and the T/C [10] was 99 % of control.
In the case of `CCN1CCN2C(=O)OCC2C1` (stereo unspecified), the T/C (dose: 100.0 mg/kg/injection, schedule: Q04DX003 (sc), vehicle: olive oil, sesame oil, peanut oil) was 94 % of control, the T/C (dose: 200.0 mg/kg/injection, schedule: Q04DX003 (sc), vehicle: olive oil, sesame oil, peanut oil) was 97 % of control and the T/C (dose: 400.0 mg/kg/injection, schedule: Q04DX003 (sc), vehicle: olive oil, sesame oil, peanut oil) was 92 % of control.
For `O=NN(c1ccccc1)c1ccc(N(N=O)c2ccccc2)cc1`, the T/C [1] was 97 % of control, the T/C [2] was 96 % of control and the T/C [6] was 93 % of control. The T/C [8] was 100 % of control, the T/C [7] was 100 % of control and the T/C [9] was 96 % of control. The T/C [10] was 96 % of control.
With `CCCNC(=O)Nc1ccc(Nc2ccccc2)cc1` the T/C [2] was 105 % of control, the T/C [8] was 103 % of control and the T/C [9] was 94 % of control.
In the case of `Cc1cccc(NC(=O)c2ccccc2)n1`, the T/C [11] was 97 % of control, the T/C [12] was 95 % of control and the T/C [13] was 92 % of control.
For `c1ccc2c(c1)CCC1=C2CCCC1`, the T/C (dose: 100.0 mg/kg/injection, schedule: Q01DX009 (ip), vehicle: saline with Tween-80) was 96 % of control, the T/C [11] was 101 % of control and the T/C (dose: 200.0 mg/kg/injection, schedule: Q01DX009 (ip), vehicle: saline with Tween-80) was 98 % of control. The T/C [12] was 89 % of control, the T/C (dose: 400.0 mg/kg/injection, schedule: Q01DX009 (ip), vehicle: saline with Tween-80) was 91 % of control and the T/C [13] was 92 % of control.
In the case of `Nc1ccc(S(=O)(=O)NC(=O)NCc2ccccc2)cc1`, the T/C [11] was 101 % of control, the T/C [12] was 98 % of control and the T/C [13] was 101 % of control.
For `FC1(F)C2Cc3ccccc3C2C1(F)F` (stereo unspecified), the T/C [6] was 96 % of control, the T/C [7] was 98 % of control and the T/C [10] was 100 % of control.
`NOC(=O)c1ccccc1` was tested, and the T/C (dose: 100.0 mg/kg/injection, schedule: Q04DX002 (ip), vehicle: saline) was 105 % of control and the T/C (dose: 200.0 mg/kg/injection, schedule: Q04DX002 (ip), vehicle: saline) was 102 % of control.
